Measured values taken from patent US5607836A, “Methods of detecting compounds which bind to the P2U receptor” (The Curators of the University of Missouri, priority 1995, dated 1997).

Tests used:
murine P2U receptor [1] = target: T1, murine P2U receptor (Mus musculus, UniProt P35383); test: intracellular phosphatidylinositol 4,5-bisphosphate (PIP2) in K562 stable transfectants; format: cell-based; details: transient
Text: Stable and Transient Transfections. To generate stable transfectants expressing the P2U receptor, K562 cells were transfected by electroporation (F. Toneguzzo et al., Mol. Cell. Biol. 6, 703 (1986)) with the neomycin-resistance plasmid pP2R1. pP2R1 is pRc/CMV containing a ~2.4 kb HindIII-NotI fragment of the P2U receptor cDNA, missing the first 6 nucleotides of the 5' untranslated region of the full length cDNA. control cells were stably transfected with pRc/CMV. Cells were sedimented at 200×g for 5 min at room temperature, rinsed once with phosphate-buffered saline (10 mM NaH2 PO4, pH 7.4, 120 mM NaCl, 5 mM KCl), and resuspended in phosphate-buffered saline at a final concentration of 4×10^7 cells/ml. The cells were chilled on ice for 10 min and then transferred in 0.5 ml aliquots to prechilled electroporation cuvettes. DNA (40 μg of pP2R1 linearized with PvuI) was added to the cell suspension, the cells were subjected to a single electrical pulse (1 kV, 25 μF) and the cuvettes were placed on ice. After 10 min, growth medium was added and the cells were incubated at 37° C. Fresh growth medium supplemented with 0.7 mg/ml G418 was added 48 h […], and the cells were incubated for 2 weeks to select for stable transfectants expressing neomycin resistance. […]

human P2U receptor = human P2U receptor (Homo sapiens, UniProt P41231); test: intracellular calcium by fura-2 fluorescence in 1321N1 human astrocytoma cells expressing the cloned HP2U (LHP2USN); format: cell-based; details: for [Ca^2+ ]i in absence of extracellular Ca^2+: HP2U-1321N1 cells
Description: Heteroloqous Expression. A retroviral vector-containing plasmid, pLHP2USN, was constructed by insertion of the cloned CF/T43 cDNA into the EcoRI and XhoI sites of pLXSN (A. Miller and G. Rosman, Biotechniques 7, 980 (1989)). An amphotrophic packaging cell line, PA317, was used to produce the LHP2USN retroviral vector and a control vector containing Neor only (LSN). Clonal human astrocytoma cells 1321N1, UNC strain, generously provided by T. K. Harden (UNC, Chapel Hill, N.C.), were plated at 150,000 cells per 60-mm dish and infected with LHP2USN or LSN (2 hr, 4 ug/ml Polybrene) and after 48 hr selected with 600 ug/ml G418 (Life Technologies, Inc., Gaithersburg, Md., U.S.A.). To assay for receptor activity, intracellular calcium concentration was measured in confluent cells on coverslips by fura-2 fluorescence using microspectrofluorimetry as previously described (S. Mason et al., Br. J. Pharmacol. 103, 1649 (1991)). Measurement of cell inositol phosphate formation was as described by H. Brown et al., Mol. Pharmacol. 40, 648 (1991), in accordance with known techniques.
A retrovirus expression system was employed to study the cloned CF/T43 HP2U cDNA in 1321N1 human astrocytoma cells. The effect of extracellular nuceotides on intracellular calcium, as measured by fura-2 fluorescence, was assessed in CF/T43 cells, uninfected 1321N1 cells, and 1321N1 cells infected with retroviral vector containing either the cloned HP2U or no insert (LSN).
To examine the pharmacological specifity of the HP2U clone expressed in 1321N1 cells, concentration-effect curves were generated for nucleotides and structural analogues active at P2X, P2Y and P2U receptors (data not shown). […] These concentration-effect relations are very similar to those reported for heterologously expressed murine P2U (Lustig, et al., supra) and virtually indistinguishable from data (not shown) generated for the endogenous CF/T43 and HT-29 receptors. Clearly, the agonist specifities fit the definition of the P2U receptor.

murine P2U receptor [2] = target: T1, murine P2U receptor; test: cytoplasmic free calcium (fura-2) in K562 cells transfected with P2U receptor cDNA; format: cell-based; design: missing the first 6 nucleotides of the 5' untranslated region of the full length cDNA; expressed in transfected cells; host or cells: K562 human leukemia cells; details: for increase in [Ca^2+ ]i: K562 cells stably or transiently transfected with P2U receptor cDNA; for time of return of [Ca^2+ ]i to the basal level / time to maximal [Ca^2+ ]i after nucleotide addition: K562 stable or transient transfectants; for effect of depletion of extracellular Ca^2+ by EGTA on nucleotide-mediated increases in [Ca^2+ ]i: stable transfectants
Text: Stable and Transient Transfections. To generate stable transfectants expressing the P2U receptor, K562 cells were transfected by electroporation (F. Toneguzzo et al., Mol. Cell. Biol. 6, 703 (1986)) with the neomycin-resistance plasmid pP2R1. pP2R1 is pRc/CMV containing a ~2.4 kb HindIII-NotI fragment of the P2U receptor cDNA, missing the first 6 nucleotides of the 5' untranslated region of the full length cDNA. control cells were stably transfected with pRc/CMV. Cells were sedimented at 200×g for 5 min at room temperature, rinsed once with phosphate-buffered saline (10 mM NaH2 PO4, pH 7.4, 120 mM NaCl, 5 mM KCl), and resuspended in phosphate-buffered saline at a final concentration of 4×10^7 cells/ml. The cells were chilled on ice for 10 min and then transferred in 0.5 ml aliquots to prechilled electroporation cuvettes. DNA (40 μg of pP2R1 linearized with PvuI) was added to the cell suspension, the cells were subjected to a single electrical pulse (1 kV, 25 μF) and the cuvettes were placed on ice. After 10 min, growth medium was added and the cells were incubated at 37° C. Fresh growth medium supplemented with 0.7 mg/ml G418 was added 48 h […], and the cells were incubated for 2 weeks to select for stable transfectants expressing neomycin resistance. Clonal cell lines were then isolated by transferring single cells to individual wells of a 96-well culture plate: each well contained 0.2 ml of conditioned growth medium filtered from K562 stock cultures, 0.2 ml of fresh growth medium, and 0.4 mg/ml G418. The clonal cell lines were cultured for three to four weeks in growth medium containing 0.4 mg/ml G418 and assayed for P2U receptor, the results shown are from one representative clonal cell line.
To generate transient transfectants, K562 cells were transfected as above with 40 μg unlinearized plasmid pCCM6×1 or pP2R (Lustig et al., supra 1993). Cells were incubated for 48 h at 37° C. in 100 mm culture dishes containing 12 ml of growth medium and assayed for P2U receptor activity.
Cytoplasmic Free Calcium Measurements. Cells were sedimented at 200×g for 5 min at room temperature and washed once with 10 ml of Hepes-bufferedsaline (20 mM Hepes, pH 7.4, 120 mM NaCl, 5 mM KCl, 1 mM MgCl2, and 1 mM CaCl2). Washed cells were suspended in Hepes-buffered saline at 5×10^5 cells/ml, and stored (for up to 4 h) at 37° C. The concentration of cytoplasmic free calcium, [Ca^2+ ]i, was measured by dual-excitation spectrofluorometric analysis of cells loaded with fura-2, a fluorescent probe for calcium.

[3] = target: histidine-tagged P2U receptor (P2HIS) (Mus musculus, UniProt P35383); test: PIP2 in K562 cells stably expressing P2HIS; format: cell-based, murine
Description: Construction and Purification of the Histidine-tagged P2U Receptor (P2HIS). To produce P2HIS, 70 pmoles of the primers CGCACCATTGCCTTGGTAC (SEQ ID NO:3)(which contains a BstXI site) and […] (SEQ ID NO:4) (which contains an EcoRV site, stop codon, and the hexahistidine coding sequence) were incubated with 50 ng of pP2R, 20 nmoles of each dNTP, 1X reaction buffer (20 mM Tris-HCl, pH 8.2, 10 mM KCl, 6 mM (NH4)2 SO4, 1.5 mM MgCl2, and 0.1% Triton X-100), and H2 O to bring the reaction mixture to a 100 μl volume. […] The reaction mixture was overlayed with 50 μl of mineral oil and subjected to 30 PCR cycles (95° C. for 1.5 min, 55° C. for 1.5 min, and 72° C. for 2 min). The PCR product, a single 400 bp band, was subcloned into the unique BstXI-EcoRV restriction site of pP2R to generate pP2HIS. K562 cells with stable P2HIS expression were produced by subcloning the HindIII-NotI restriction fragment of pP2HIS encoding the histidine-taged P2U receptor cDNA into pRC/CMV and transfecting K562 cells as described for pP2R1. The composition of pP2HIS was verified by DNA sequence analysis.

T1 sequence (P35383 whole entry, the tested form may be a part): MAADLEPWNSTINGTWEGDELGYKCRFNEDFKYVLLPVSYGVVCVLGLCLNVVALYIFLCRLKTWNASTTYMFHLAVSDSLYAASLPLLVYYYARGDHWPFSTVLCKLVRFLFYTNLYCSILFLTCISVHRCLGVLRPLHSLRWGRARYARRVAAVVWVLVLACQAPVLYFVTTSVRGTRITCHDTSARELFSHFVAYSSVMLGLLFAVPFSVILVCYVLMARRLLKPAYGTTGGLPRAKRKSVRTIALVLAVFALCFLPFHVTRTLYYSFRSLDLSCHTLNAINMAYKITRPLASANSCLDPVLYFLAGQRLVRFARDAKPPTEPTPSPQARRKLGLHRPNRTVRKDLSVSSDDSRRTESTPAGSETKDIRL
human P2U receptor, sequence (P41231 whole entry): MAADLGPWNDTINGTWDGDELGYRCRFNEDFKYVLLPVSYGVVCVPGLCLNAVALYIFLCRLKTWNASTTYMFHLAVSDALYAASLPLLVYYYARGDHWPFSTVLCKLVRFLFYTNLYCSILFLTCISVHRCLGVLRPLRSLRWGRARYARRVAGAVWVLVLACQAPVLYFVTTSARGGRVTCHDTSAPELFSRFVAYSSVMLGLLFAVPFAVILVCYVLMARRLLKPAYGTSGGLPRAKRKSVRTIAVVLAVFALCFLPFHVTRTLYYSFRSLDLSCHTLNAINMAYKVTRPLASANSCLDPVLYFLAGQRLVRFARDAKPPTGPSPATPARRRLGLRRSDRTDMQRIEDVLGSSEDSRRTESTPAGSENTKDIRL
histidine-tagged P2U receptor (P2HIS), sequence (P35383 whole entry): as the sequence (P35383 whole entry, the tested form may be a part) above

| SMILES | reduction of intracellular levels of phosphatidylinositol 4,5-bisphosphate (PIP2) (murine P2U receptor [1]) | EC50 (human P2U receptor) [µM] | [Ca^2+ ]i response of 1321N1 cells expressing the LHP2USN vector (human P2U receptor; Ca2+-free and Ca2+-containing media) | [Ca^2+ ]i in absence of extracellular Ca^2+ (human P2U receptor) | EC50 (murine P2U receptor [2]) [µM] | increase in [Ca^2+ ]i (murine P2U receptor [2]) | time of return of [Ca^2+ ]i to the basal level (murine P2U receptor [2]) [min] | time to maximal [Ca^2+ ]i after nucleotide addition (murine P2U receptor [2]) [s] | effect of depletion of extracellular Ca^2+ by EGTA on nucleotide-mediated increases in [Ca^2+ ]i (murine P2U receptor [2]) | PIP2 in K562 cells stably expressing P2HIS [3] | efficacy / effect in concentration-effect curves (human P2U receptor; HP2U clone expressed in 1321N1 cells) |
| --- | --- | --- | --- | --- | --- | --- | --- | --- | --- | --- | --- |
| Nc1ncnc2c1ncn2[C@@H]1O[C@H](COP(=O)(O)OP(=O)(O)OP(=O)(O)O)[C@@H](O)[C@H]1O [ATP] | approximately 10% | 1 | the same result observed with UTP | raised [Ca^2+ ]i | ~1.4 | two-fold increase | ≤ 1 | ≤ 5 | not affected | decrease in PIP2 |  |
| O=c1ccn([C@@H]2O[C@H](COP(=O)(O)OP(=O)(O)OP(=O)(O)O)[C@@H](O)[C@H]2O)c(=O)[nH]1 [UTP] | approximately 10% | 1.4 |  | raised [Ca^2+ ]i | ~0.8 | two-fold increase | ≤ 1 | ≤ 5 | not affected | decrease in PIP2 | slightly more efficacious |
